# Like-named read-outs stand apart in the source and are kept apart here.
# Columns and labels:
# [1] = Effect of gemcabene on simvastatin pharmacokinetics (active HMG-Co-A reductase inhibitor concentration); type: in vivo, human; conditions: simvastatin alone vs in combination with gemcabene
# [2] = target: T1, CYP2E1 (Homo sapiens, UniProt P05181); assay: Inhibition of CYP2E1 (p-nitrocatechol from p-nitrophenol) in human liver microsomes; type: in vitro ADME; conditions: 1500 μM
# T1 construct: Human livers, HLM141, HLM143, and HLM144 were selected from the University of Washington Human Liver Bank for this study; Microsomes were prepared; tissue University of Washington Human Liver Bank HLM141, HLM143, HLM144; host or cells: human liver microsomes
# Procedure: (§1) Human livers, HLM141, HLM143, and HLM144 were selected from the University of Washington Human Liver Bank for this study. […] The seven isoforms and the metabolic pathway of each of the probes used to monitor specific isoform activity are listed below.
# CYP2E1: The formation of p-nitrocatechol from p-nitrophenol (40 μM). Amounts of product formed are monitored by HPLC.
# [3] = Musculoskeletal adverse events, study A4141001; type: in vivo, human
# [4] = target: T2, CYP2D6 (Homo sapiens, UniProt P10635); assay: Inhibition of CYP2D6 (demethylation of dextromethorphan) in human liver microsomes; type: in vitro ADME; conditions: probe dextromethorphan (O-demethylation), 5 μM, read-out: inhibitory activity toward CYP2D6
# T2 construct: Human livers, HLM141, HLM143, and HLM144 were selected from the University of Washington Human Liver Bank for this study; Microsomes were prepared; tissue University of Washington Human Liver Bank HLM141, HLM143, HLM144; host or cells: human liver microsomes
# Procedure: as §1
# CYP2D6: The 0-demethylation of dextromethorphan (5 μM). The reaction is monitored by high performance liquid chromatography (HPLC) using florescence detection.
# [5] = test system: fibrinogen; assay: Fibrinogen in hypercholesterolemic patients, post hoc analysis of Study A4141001; type: in vivo, human; conditions: for Difference in fibrinogen change, Gem-placebo: subgroup baseline >400 mg/dL
# Procedure: Week 0) and the end (Visit T8, Week 8). Analyses of covariance (ANCOVA) methods used in the original study A4141001 were again utilized in these analyses. For fibrinogen, baseline was defined as the last pretreatment visit, and endpoint was the last visit up to and including the day after last dose of medication. The least-squares means and p-values for change from baseline in fibrinogen were calculated using an ANCOVA model with the effects of baseline lipid value and treatment. Also, medians and p-values for percent change from baseline. […] This, consequently, was the definition for the modified intent-to treat (MITT) population.
# [6] = target: T3, CYP2A6 (Homo sapiens, UniProt P11509); assay: Inhibition of CYP2A6 (7-hydroxylation of coumarin) in human liver microsomes; type: in vitro ADME; conditions: probe coumarin (7-hydroxylation), 4 μM, read-out: inhibitory activity toward CYP2A6
# T3 construct: Human livers, HLM141, HLM143, and HLM144 were selected from the University of Washington Human Liver Bank for this study; Microsomes were prepared; tissue University of Washington Human Liver Bank HLM141, HLM143, HLM144; host or cells: human liver microsomes
# T3 sequence (P11509 1-494): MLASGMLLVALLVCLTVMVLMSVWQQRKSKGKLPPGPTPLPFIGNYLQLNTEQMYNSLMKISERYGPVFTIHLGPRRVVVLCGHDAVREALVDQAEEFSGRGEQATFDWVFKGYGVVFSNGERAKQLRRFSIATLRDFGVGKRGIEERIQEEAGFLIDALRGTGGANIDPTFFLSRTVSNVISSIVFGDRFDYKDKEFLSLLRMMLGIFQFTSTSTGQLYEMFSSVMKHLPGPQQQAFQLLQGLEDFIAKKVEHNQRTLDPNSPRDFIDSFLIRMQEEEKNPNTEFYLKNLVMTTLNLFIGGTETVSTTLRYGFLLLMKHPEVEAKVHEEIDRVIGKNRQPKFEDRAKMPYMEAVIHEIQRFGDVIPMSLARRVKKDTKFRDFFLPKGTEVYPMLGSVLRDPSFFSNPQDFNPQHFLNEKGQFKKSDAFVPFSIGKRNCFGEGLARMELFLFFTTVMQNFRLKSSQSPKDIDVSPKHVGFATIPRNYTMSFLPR
# Procedure: as §1
# CYP2A6: The 7-hydroxylation of coumarin (4 μM). The reaction is monitored by HPLC using florescence detection.
# [7] = test system: STAM model of non-alcoholic steatohepatitis (NASH); conditions: for Fasting blood glucose (mean ± SD): Day 18, 8 hours of fasting; for Non-fasting blood glucose (mean ± SD): termination (Day 21); for Plasma GGT (mean ± SD) / Plasma creatinine (mean ± SD) / Plasma ALP (mean ± SD): mouse, in vivo, po
# Procedure: Telmisartan (Micardis®) was purchased from Boehringer Ingelheim GmbH (Germany) and dissolved in pure water.
# Telmisartan was administered at a dose of 10 mg/kg once daily.
# Eight-hour fasting blood glucose was measured in whole blood using Life Check (EIDIA Co. Ltd., Japan). For plasma biochemistry, eight-hour fasting blood was collected in polypropylene tubes with anticoagulant (Novo-Heparin, Mochida Pharmaceutical, Japan) and centrifuged at 1,000×g for 15 minutes at 4° C. The supernatant was collected and stored at −80° C. until use. Plasma insulin levels were quantified by Ultra Sensitive Mouse Insulin ELISA kit (Morinaga Institute of Biological Science, Inc., Japan).
# On the day of termination, non-fasting blood glucose was measured in whole blood using Life Check. For plasma biochemistry, non-fasting blood was collected in polypropylene tubes with anticoagulant (Novo-Heparin) and centrifuged at 1,000×g for 15 minutes at 4° C. The supernatant was collected and stored at −80° C. until use. Plasma ALT, AST, ALP, GGT, BUN, creatinine and total bilirubin levels were measured by FUJI DRI-CHEM 7000 (Fujifilm Corporation, Japan). Plasma ketone body levels were quantified by EnzyChrom™ Ketone Body Assay Kit (BioAssay Systems, USA).
# Liver samples were homogenized in chloroform-methanol (2:1, v/v) and incubated overnight at room temperature. After washing with chloroform-methanol-water (8:4:3, v/v/v), the extracts were evaporated to dryness, and dissolved in isopropanol. Liver triglyceride content was measured by Triglyceride E-test (Wako Pure Chemical Industries). […]
# Statistical analyses were performed using Bonferroni Multiple Comparison Test on GraphPad Prism 6 (GraphPad Software Inc., USA). […] Results were expressed as mean±SD.
# The viability, clinical signs and behavior were monitored daily. Body weight was recorded before the treatment. […] The animals were sacrificed by exsanguinations through direct cardiac puncture under isoflurane anesthesia (Pfizer Inc.) at 9 weeks of age.
# [8] = gemcabene 300 and 900 mg QD with atorvastatin 80 mg QD
# [9] = A4141001, patient type IIa + IIb
# [10] = STAM NASH mice, 30 mg/kg PO QD, 30 mg/kg
# [11] = STAM NASH mice, 100 mg/kg PO QD, 100 mg/kg
# [12] = STAM NASH mice, 100 mg/kg PO QD, Day 21, 100 mg/kg
# [13] = STAM NASH mice, 300 mg/kg PO QD, 300 mg/kg
# T1 sequence (P05181 whole entry): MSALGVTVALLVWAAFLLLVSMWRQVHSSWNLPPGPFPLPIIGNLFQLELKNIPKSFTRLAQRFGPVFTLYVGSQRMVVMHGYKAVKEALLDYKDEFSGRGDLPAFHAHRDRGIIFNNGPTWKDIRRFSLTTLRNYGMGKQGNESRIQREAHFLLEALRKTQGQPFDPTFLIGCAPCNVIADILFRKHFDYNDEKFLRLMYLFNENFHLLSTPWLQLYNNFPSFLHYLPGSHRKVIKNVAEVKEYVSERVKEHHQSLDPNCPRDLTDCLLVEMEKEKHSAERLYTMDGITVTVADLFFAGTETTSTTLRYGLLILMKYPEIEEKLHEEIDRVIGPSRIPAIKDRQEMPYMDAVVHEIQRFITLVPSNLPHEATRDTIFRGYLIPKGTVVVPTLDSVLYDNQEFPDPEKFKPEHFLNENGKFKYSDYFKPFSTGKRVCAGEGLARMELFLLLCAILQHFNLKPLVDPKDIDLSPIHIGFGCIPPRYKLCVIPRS
# T2 sequence (P10635 whole entry): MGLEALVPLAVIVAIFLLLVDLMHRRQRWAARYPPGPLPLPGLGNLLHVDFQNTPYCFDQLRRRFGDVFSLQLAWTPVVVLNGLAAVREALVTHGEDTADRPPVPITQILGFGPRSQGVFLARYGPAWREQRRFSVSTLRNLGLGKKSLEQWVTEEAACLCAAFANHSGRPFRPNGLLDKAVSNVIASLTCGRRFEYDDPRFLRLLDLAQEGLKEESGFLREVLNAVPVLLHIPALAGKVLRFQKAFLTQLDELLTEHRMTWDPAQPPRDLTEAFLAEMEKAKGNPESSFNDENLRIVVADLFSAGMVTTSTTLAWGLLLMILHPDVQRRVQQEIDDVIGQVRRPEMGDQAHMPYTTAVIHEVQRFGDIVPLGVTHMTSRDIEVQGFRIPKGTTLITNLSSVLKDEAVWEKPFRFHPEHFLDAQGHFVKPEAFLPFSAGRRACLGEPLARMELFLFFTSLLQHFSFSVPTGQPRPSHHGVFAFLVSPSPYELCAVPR
smiles,measurement,setting,value
"CC(C)(CCCCOCCCCC(C)(C)C(=O)O)C(=O)O [Gemcabene, 6,6′-oxybis(2,2-dimethylhexanoic acid)]",effect on active HMG-Co-A reductase inhibitor pharmacokinetics after simvastatin (80 mg),[1],lowers Cmax but has no effect on AUC
same,CYP2E1 activity enhanced,[2],about 20%
same,% = the percent of patients experiencing a musculoskeletal adverse event,"[3]; A4141001, patient type IIa",0.0%
same,No = the number of muscle skeletal adverse events,"[3]; A4141001, patient type IIa",0
same,% = the percent of patients experiencing a musculoskeletal adverse event,[3]; [9],0.0%
same,No = the number of muscle skeletal adverse events,[3]; [9],0
same,% = the percent of patients experiencing a musculoskeletal adverse event,"[3]; A4141001, patient type IIb",0.0%
same,No = the number of muscle skeletal adverse events,"[3]; A4141001, patient type IIb",0
same,inhibition at 1500 µM,[4],10 to 20%
same,Difference in fibrinogen change = Gem − Placebo,"[5]; MITT, Gemcabene 300 mg",−13.0
same,"Difference in fibrinogen change, Gem-placebo",[5]; Gem 300 mg,5.0
same,"Difference in fibrinogen change, Gem-placebo",[5]; Gem 900 mg,−34.0
same,inhibition at 1500 µM,[6],10 to 20%
same,"NAFLD Activity score, NAS (mean ± SD)","[7]; STAM NASH mice, 30 mg/kg PO QD 6-9 wks, 30 mg/kg",significant reduction
same,Fasting blood glucose (mean ± SD),[7]; [10],no significant differences
same,Liver triglyceride (mean ± SD),"[7]; STAM NASH mice, 30 mg/kg PO QD, Day 21, 30 mg/kg",no significant differences
same,Non-fasting blood glucose (mean ± SD),[7]; [10],no significant differences
same,Fasting blood glucose (mean ± SD),[7]; [11],no significant differences
same,Liver triglyceride (mean ± SD),[7]; [12],no significant differences
same,Plasma ALT (mean ± SD),[7]; [12],significant decrease
same,Non-fasting blood glucose (mean ± SD),[7]; [11],no significant differences
same,"NAFLD Activity score, NAS (mean ± SD)","[7]; STAM NASH mice, 300 mg/kg PO QD 6-9 wks, 300 mg/kg",significant reduction
same,Fasting blood glucose (mean ± SD),[7]; [13],no significant differences
same,Liver triglyceride (mean ± SD),"[7]; STAM NASH mice, 300 mg/kg PO QD, Day 21, 300 mg/kg",no significant differences
same,Non-fasting blood glucose (mean ± SD),[7]; [13],no significant differences
same,fibrosis area compared with the Vehicle in NASH group,"[7]; STAM NASH mice, all treatment groups (gemcabene 30, 100, 300 mg/kg; telmisartan 10 mg/kg)",significantly reduced
same,Plasma GGT (mean ± SD),[7]; 30 mg/kg,1 ± 0 U/L
same,Plasma creatinine (mean ± SD),[7]; 30 mg/kg,0.1 ± 0.0 mg/dL
same,Plasma ALP (mean ± SD),[7]; 100 mg/kg,significant increases
same,Plasma GGT (mean ± SD),[7]; 100 mg/kg,1 ± 0 U/L
same,Plasma ALP (mean ± SD),[7]; 300 mg/kg,significant increases
same,Plasma GGT (mean ± SD),[7]; 300 mg/kg,1 ± 0 U/L
same,Plasma creatinine (mean ± SD),[7]; 300 mg/kg,significant increase
same,"effect on atorvastatin pharmacokinetics (Cmax, tmax, AUC(0-24), t½, atorvastatin and metabolites)",[8],no clinically important effect
